Results from patent US20200397795A1, “PROPHYLACTIC TREATMENT OF VENOUS THROMBOEMBOLISM” (JANSSEN PHARMACEUTICALS, INC., priority 2019, published 2020).
Like-named read-outs stand apart in the source and are kept apart here.

Key:
[1] = MAGELLAN (Study 1): pharmacokinetics; format: in vivo, human; settings: for AUC: plasma
Protocol: A subset of approximately 125 subjects was to be stratified into 5 groups (of 25 subjects) based on the major diagnoses. The following pharmacokinetic (PK) parameters were calculated on Day 1 and Day 10: area under the plasma concentration curve (AUC), area under the curve normalized to body weight (AUCnorm), area under the curve for the expected dosing interval obtained after single dose administration (AUCτ), AUCτ, norm, maximum serum concentration (Cmax), maximum and normalized serum concentration (Cmax, norm), time to reach maximum concentration in plasma (tmax), half-life (t1/2), and total body clearance of drug from plasma calculated after oral administration (CL/F).

[2] = tested on: bleeding events in high-risk, medically ill subjects; settings: human, in vivo
Source text: (§1) The safety objectives were to compare rivaroxaban with placebo in the following bleeding outcomes in high-risk, medically ill subjects: • Major bleeding using validated International Society on Thrombosis and Haemostasis (ISTH) bleeding criteria. • Non-major clinically relevant (NMCR) bleeding. • Other bleeding.
(§2) Safety assessment was based on bleeding events classified by validated ISTH criteria as major bleeding (principal safety outcome), NMCR bleeding, or Other bleeding. […] The safety outcome of NMCR bleeding was defined as overt bleeding not meeting ISTH criteria for major bleeding, but associated with medical intervention, unscheduled contact (visit or telephone call) with a physician, (temporary) cessation of study treatment, or associated with discomfort for the subject such as pain or impairment of activities of daily life. […] Overall safety was also assessed.
(§3) The principal safety outcome was major bleeding based on validated ISTH criteria. Treatments were compared using the same statistical model (i.e., Cox proportional hazards model) as that for the primary efficacy outcome. The same analyses were used for NMCR bleeding. Safety analyses were based on the safety analysis set and on-treatment analysis phase. Bleeding events were analyzed based on time from randomization to the first occurrence.

[3] = tested on: bleeding events in high-risk, medically ill subjects; assay: MARINER (Study 2): safety, ISTH bleeding and adverse events
Source text: as §1, §2, §3

O=C(NC[C@H]1CN(c2ccc(N3CCOCC3=O)cc2)C(=O)O1)c1ccc(Cl)s1 [Rivaroxaban, 5-chloro-N-({(5S)-2-oxo-3-[4-(3-oxo-4-morpholinyl)phenyl]-1,3,oxazolidin-5-yl}methyl)-2-thiophenecarboxamide]
Cmax ([1]; Day 10, subjects with acute infectious disease): 178.9 ng/mL
AUC ([1]; human, oral, 10 mg, Day 1, overall, 10 mg): 1640 ng·h/mL
AUC ([1]; human, oral, 10 mg, Day 10, overall, 10 mg): 1360 ng·h/mL
AUC ([1]; human, oral, 10 mg, Day 10, subjects with CHF NYHA IV): 1440 ng·h/mL
AUC ([1]; human, oral, 10 mg, Day 10, subjects with acute infectious disease): 1190 ng·h/mL
Cmax ([1]; human, serum, oral, 10 mg, Day 1, overall, 10 mg, read-out: Cmax): 176 ng/mL
Cmax ([1]; human, serum, oral, 10 mg, Day 10, overall, 10 mg, read-out: Cmax): 189 ng/mL
Cmax ([1]; human, serum, oral, 10 mg, Day 10, subjects with CHF NYHA IV, read-out: Cmax): 192 ng/mL
AEs with onset >2 days from stop of study drug, n (%) [2]: 419 (7.0) %
Any AEs, n (%) ([2]; 45 days): 1438 (24.0) %
Discontinued study drug permanently because of NMCR bleeding ([2]; 45 days): 0.7%
Discontinued study drug permanently due to bleeding ([2]; 45 days): 1.1%
Major and NMCR bleeding, event rate ([2]; 45 days): 1.71 100 pt-45 dy
Major bleeding at a critical site, incidence ([2]; 45 days): 0.05%
Major bleeding, event rate ([2]; 45 days): 0.28 100 pt-45 dy
NMCR bleeding, event rate ([2]; 45 days): 1.43 100 pt-45 dy
Other bleeding, event rate ([2]; 45 days): 0.91 100 pt-45 dy
Post-baseline AEs, n (%) ([2]; 45 days): 1430 (23.9) %
Post-baseline SAEs, n (%) ([2]; 45 days): 465 (7.8) %
SAEs with onset >2 days from stop of study drug, n (%) ([2]; 45 days): 169 (2.8) %
SAEs, n (%) ([2]; 45 days): 460 (7.8) %
TEAE COPD ([2]; 45 days): 1.3%
TEAE diarrhoea ([2]; 45 days): 1.1%
TEAE headache ([2]; 45 days): 1.6%
TEAEs, n (%) ([2]; 45 days): 1198 (20.0) %
TESAEs, n (%) ([2]; 45 days): 337 (5.6) %
Fatal bleeding, incidence ([3]; 10 mg dose stratum): 0.04%
Fatal bleeding, incidence ([3]; on-treatment, safety analysis set): 0.03%
AEs with outcome of death, n (%) ([3]; safety analysis set): 95 (1.6) %
